In patent publication US20050096327A1, “Novel norepinephrine reuptake inhibitors for the treatment of central nervous system disorders” (priority 2003, published 2005):

What was measured:
[1] = molecular target: T1, human norepinephrine transporter (Homo sapiens, UniProt P23975); assay: hNET receptor binding ([125I]-RTI-55, membranes of transfected HEK-293 cells); settings: 50 pM [125I]-RTI-55, 90 min room temperature; IC50 converted by Cheng-Prusoff
T1 construct: host or cells: HEK-293
Description: (§1) Cell pastes of HEK-293 cells transfected with the human norepinephrine transporter were supplied by the Pfizer Ann Arbor Protein Expression and Production group. Pellets were resuspended in 400 to 700 ml of Krebs-HEPES assay buffer (25 mM HEPES, 122 mM NaCl, 3 mM KCl, 1.2 mM MgSO4, 1.3 mM CaCl2, and 11 mM glucose, pH 7.4) with a Polytron homogenizer at setting 7 for 30 sec. Aliquots of membranes (5 mg/ml protein) were stored in liquid nitrogen until used.
The binding assay was set up in Beckman deep-well polypropylene plates with a total volume of 250 μl containing: drug (10^−5M to 10^−12M), cell membranes, and 50 pM [^125I]-RTI-55 (Perkin Elmer, NEX-272; specific activity 2200 Ci/mmol). The reaction was incubated by gentle agitation for 90 min at room temperature and was terminated by filtration through Whatman GF/C filter plates using a Brandel 96-well plate harvester. Scintillation fluid (100 μl) was added to each well, and bound [^125I]-RTI-55 was determined using a Wallac Trilux Beta Plate Counter. Test compounds were run in duplicate, and specific binding was defined as the difference between binding in the presence and absence of 10 μM desipramine.
Excel and GraphPad Prism software were used for data calculation and analysis. IC50 values were converted to Ki values using the Cheng-Prusoff equation. The Ki values for the hNET are reported below in Table 1.

[2] = molecular target: T2, human serotonin transporter (Homo sapiens, UniProt P31645); assay: hSERT receptor binding ([125I]-RTI-55, membranes of transfected HEK-293 cells); settings: 50 pM [125I]-RTI-55, 90 min room temperature; IC50 converted by Cheng-Prusoff
T2 construct: host or cells: HEK-293
T2 sequence (P31645 whole entry): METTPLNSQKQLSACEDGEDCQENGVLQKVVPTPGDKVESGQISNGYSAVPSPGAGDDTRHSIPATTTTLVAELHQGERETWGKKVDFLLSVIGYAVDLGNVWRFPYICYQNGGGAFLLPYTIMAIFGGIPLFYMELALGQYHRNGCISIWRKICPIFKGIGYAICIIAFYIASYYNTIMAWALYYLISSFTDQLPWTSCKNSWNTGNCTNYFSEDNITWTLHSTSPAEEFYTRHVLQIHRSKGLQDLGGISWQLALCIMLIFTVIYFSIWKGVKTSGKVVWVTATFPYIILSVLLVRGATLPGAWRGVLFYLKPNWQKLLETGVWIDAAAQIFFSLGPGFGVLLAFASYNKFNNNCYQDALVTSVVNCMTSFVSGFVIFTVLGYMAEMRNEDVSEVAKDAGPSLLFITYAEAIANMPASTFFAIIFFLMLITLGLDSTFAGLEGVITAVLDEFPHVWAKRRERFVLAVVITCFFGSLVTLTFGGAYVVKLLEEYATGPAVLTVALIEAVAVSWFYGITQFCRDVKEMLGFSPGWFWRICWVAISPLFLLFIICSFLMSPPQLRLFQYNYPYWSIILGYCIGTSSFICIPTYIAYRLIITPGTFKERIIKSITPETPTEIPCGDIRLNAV
Description: as §1, with “serotonin” for “norepinephrine”, “Group.” for “group.”, “mL” for “ml”, “Setting” for “setting”, “seconds.” for “sec.”, “(˜2.5 mg/mL” for “(5 mg/ml”
Assays were set up in FlashPlates pre-coated with 0.1% PEI in a total volume of 250 μL containing: drug (10^−5M to 10^−12M), cell membranes, and 50 pM [^125I]-RTI-55 (Perkin Elmer, NEX-272; specific activity 2200 Ci/mmol). The reaction was incubated and gently agitated for 90 minutes at room temperature, and terminated by removal of assay volume. Plates were covered, and bound [^125I]-RTI-55 was determined using a Wallac Trilux Beta Plate Counter. Test compounds were run in duplicate, and specific binding was defined as the difference between binding in the presence and absence of 10 μM citalopram.
Excel and GraphPad Prism software were used for data calculation and analysis. IC50 values were converted to Ki values using the Cheng-Prusoff equation. The Ki values for the hSERT are reported below in Table 1.

T1 sequence (P23975 whole entry): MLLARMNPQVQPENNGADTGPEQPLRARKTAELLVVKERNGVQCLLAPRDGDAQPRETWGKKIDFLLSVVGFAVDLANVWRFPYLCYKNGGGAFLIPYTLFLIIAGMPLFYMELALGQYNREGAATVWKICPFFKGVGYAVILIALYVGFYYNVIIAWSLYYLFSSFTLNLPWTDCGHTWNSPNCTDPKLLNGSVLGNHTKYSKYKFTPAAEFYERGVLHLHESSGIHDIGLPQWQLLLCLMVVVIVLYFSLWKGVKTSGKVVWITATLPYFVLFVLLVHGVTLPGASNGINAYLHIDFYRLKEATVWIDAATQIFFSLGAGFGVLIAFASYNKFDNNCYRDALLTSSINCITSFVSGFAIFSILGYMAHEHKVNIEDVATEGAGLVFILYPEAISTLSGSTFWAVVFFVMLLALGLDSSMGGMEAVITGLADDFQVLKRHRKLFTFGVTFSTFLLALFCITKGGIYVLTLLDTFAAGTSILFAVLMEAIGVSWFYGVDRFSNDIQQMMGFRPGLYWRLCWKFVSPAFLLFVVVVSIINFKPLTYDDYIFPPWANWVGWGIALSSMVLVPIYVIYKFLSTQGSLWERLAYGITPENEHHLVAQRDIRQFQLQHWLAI

Question: Clc1cccc(-c2nc(N3CCNCC3)nc3ccccc23)c1 [Example 113, 4-(3-chloro-phenyl)-2-piperazin-1-yl-quinazoline] was tested. Which Ki [1] did it give?
Answer: 28.6 nM

Question: What about the Ki [2] of the same compound?
Answer: 119 nM

Question: What does the source list for Fc1cc2nc(N3CCNCC3)nc(-c3cccc(F)c3F)c2cc1F [Example 123, 4-(2,3-Difluoro-phenyl)-6,7-difluoro-2-piperazin-1-yl-quinazoline]?
Answer: Ki [1]: 28.5 nM; Ki [2]: 47.2 nM

Question: What does the source list for Fc1cc(F)cc(-c2nc(N3CCNCC3)nc3ccccc23)c1 [Example 126, 4-(3,5-difluoro-phenyl)-2-piperazin-1-yl-quinazoline]?
Answer: Ki [1]: 3.7 nM; Ki [2]: 107 nM

Question: NCCCNc1nc(-c2ccc(F)cc2F)c2ccccc2n1 [Example 152, N1-[4-(2,4-Difluoro-phenyl)-quinazolin-2-yl]-propane-1,3-diamine] was tested. Which Ki [1] did it give?
Answer: 25.8 nM

Question: What about the Ki [2] of the same compound?
Answer: > 10000 nM

Question: N[C@H]1CCN(c2nc(-c3cccc(F)c3F)c3ccc(F)cc3n2)C1 [Example 109, S-1-[4-(2,3-Difluoro-phenyl)-7-fluoro-quinazolin-2-yl]-pyrrolidin-3-yl-amine] was tested. Which Ki [1] did it give?
Answer: 13.9 nM

Question: What about the Ki [2] of the same compound?
Answer: 30.4 nM

Question: Which Ki [1] does the source give for Cc1cccc2nc(N3CCNCC3)nc(-c3ccccc3)c12 [Example 145, 5-Methyl-4-phenyl-2-piperazin-1-yl-quinazoline] here?
Answer: 16.6 nM

Question: And the Ki [2]?
Answer: 121 nM

Question: Which Ki [1] does the source give for Fc1ccc2nc(N3CCNCC3)nc(-c3cccc(F)c3F)c2c1 [Example 121, 4-(2,3-Difluoro-phenyl)-6-fluoro-2-piperazin-1-yl-quinazoline] here?
Answer: 15.7 nM

Question: And the Ki [2]?
Answer: 32.5 nM

Question: Which Ki [1] does the source give for N[C@@H]1CCN(c2nc(-c3cccc(F)c3F)c3ccccc3n2)C1 [Example 102, R-1-[4-(2,3-Difluoro-phenyl)-quinazolin-2-yl]-pyrrolidin-3-ylamine] here?
Answer: 11.4 nM

Question: And the Ki [2]?
Answer: 155 nM

Question: With Fc1cccc(F)c1-c1nc(N[C@@H]2CCNC2)nc2ccccc12 [Example 99, R-[4-(2,6-Difluoro-phenyl)-quinazolin-2-yl]-pyrrolidin-3-yl-amine] as the compound, how does the Ki [1] read?
Answer: 45.7 nM

Question: What about the Ki [2] of the same compound?
Answer: 2900 nM

Question: For Fc1ccc(-c2nc(N3CCNCC3)nc3cc(F)ccc23)c(Cl)c1 [Example 134, 4-(2-Chloro-4-fluoro-phenyl)-7-fluoro-2-piperazin-1-yl-quinazoline], which Ki [1] is on record?
Answer: 30.3 nM

Question: What about the Ki [2] of the same compound?
Answer: 62.6 nM

Question: What does the source list for Fc1ccc2c(-c3ccc(F)c(F)c3)nc(N3CCNCC3)nc2c1 [Example 119, 4-(3,4-Difluoro-phenyl)-7-fluoro-2-piperazin-1-yl-quinazoline]?
Answer: Ki [1]: 7.3 nM; Ki [2]: 22.7 nM

Question: For CN1CCN(c2nc(-c3ccc(F)c(F)c3)c3ccccc3n2)CC1 [Example 103, 4-(3,4-Difluoro-phenyl)-2-(4-methyl-piperazin-1-yl)-quinazoline], which Ki [2] is on record?
Answer: 645 nM

Question: What does the source list for CNC1CCN(c2nc(-c3ccc(F)cc3F)c3ccccc3n2)CC1 [Example 153, {1-[4-(2,4-Difluoro-phenyl)-quinazolin-2-yl]-piperidin-4-yl}-methyl-amine]?
Answer: Ki [1]: 150 nM; Ki [2]: > 10000 nM

Question: For Fc1ccc2c(-c3cccc(F)c3F)nc(N3CCNCC3)nc2c1 [Example 111, 4-(2,3-Difluoro-phenyl)-7-fluoro-2-piperazin-1-yl-quinazoline], which Ki [1] is on record?
Answer: 18.6 nM

Question: What about the Ki [2] of the same compound?
Answer: 37.1 nM

Question: N[C@H]1CCN(c2nc(-c3c(F)cccc3F)c3ccc(F)cc3n2)C1 [Example 94, S-1-[4-(2,6-Difluoro-phenyl)-7-fluoro-quinazolin-2-yl]-pyrrolidin-3-ylamine] was tested. Which Ki [1] did it give?
Answer: 23.7 nM

Question: And the Ki [2]?
Answer: 15.7 nM

Question: Which Ki [1] does the source give for Fc1cccc2c(-c3ccccc3)nc(N3CCNCC3)nc12 [Example 133, 8-Fluoro-4-phenyl-2-piperazin-1-yl-quinazoline] here?
Answer: 22 nM

Question: What about the Ki [2] of the same compound?
Answer: 1590 nM

Question: For “S-[4-(2,4-Difluoro-phenyl)-7-fluoro-quinazolin-2-yl]-pyrrolidin-3-yl-amine [Example 144]”, which Ki [1] is on record?
Answer: 23.4 nM

Question: What about the Ki [2] of the same compound?
Answer: 26.5 nM

Question: Fc1ccc2c(-c3c(F)cccc3F)nc(N[C@@H]3CCNC3)nc2c1 [Example 84, R-[4-(2,6-Difluoro-phenyl)-7-fluoro-quinazolin-2-yl]-pyrrolidin-3-yl-amine] was tested. Which Ki [1] did it give?
Answer: 49.8 nM

Question: And the Ki [2]?
Answer: 653 nM

Question: For N[C@@H]1CCN(c2nc(-c3cccc(F)c3F)c3ccc(F)cc3n2)C1 [Example 110, R-1-[4-(2,3-Difluoro-phenyl)-7-fluoro-quinazolin-2-yl]-pyrrolidin-3-yl-amine], which Ki [1] is on record?
Answer: 13.6 nM

Question: What about the Ki [2] of the same compound?
Answer: 57.1 nM

Question: What does the source list for Clc1ccc2c(-c3ccccc3)nc(N3CCNCC3)nc2c1 [Example 89, 7-Chloro-4-phenyl-2-piperazin-1-yl-quinazoline]?
Answer: Ki [1]: 49 nM; Ki [2]: 110 nM

Question: For CN1CCN(c2nc(-c3ccc(F)c(F)c3)c3ccccc3n2)CC1 [Example 114, 4-(3,4-Difluoro-phenyl)-2-(4-methyl-piperazin-1-yl)-quinazoline], which Ki [2] is on record?
Answer: 1090 nM

Question: Which results are given for CN1CCN(c2nc(-c3c(F)cccc3F)c3ccc(F)cc3n2)CC1 [Example 83, 4-(2,6-Difluoro-phenyl)-7-fluoro-2-(4-methyl-piperazin-1-yl)-quinazoline]?
Answer: Ki [1]: 37.6 nM; Ki [2]: 314 nM

Question: Which Ki [1] does the source give for Fc1ccc2c(-c3c(F)cccc3F)nc(N[C@H]3CCNC3)nc2c1 [Example 100, S-[4-(2,6-Difluoro-phenyl)-7-fluoro-quinazolin-2-yl]-pyrrolidin-3-yl-amine] here?
Answer: 29.3 nM

Question: What about the Ki [2] of the same compound?
Answer: 649 nM

Question: Which results are given for Fc1ccc2c(-c3nccs3)nc(N3CCNCC3)nc2c1 [Example 135, 7-Fluoro-2-piperazin-1-yl-4-thiazol-2-yl-quinazoline]?
Answer: Ki [1]: 56.8 nM; Ki [2]: 313 nM

Question: With Fc1ccc(-c2nc(N3CCNCC3)nc3ccccc23)cc1F [Example 108, 4-(3,4-difluoro-phenyl)-2-piperazin-1-yl-quinazoline] as the compound, how does the Ki [1] read?
Answer: 7.7 nM

Question: And the Ki [2]?
Answer: 77.7 nM

Question: For Fc1ccc(-c2nc(N3CC[C@@H]4CNC[C@@H]43)nc3cc(F)ccc23)c(F)c1 [Example 142, R,R-4-(2,4-Difluoro-phenyl)-7-fluoro-2-(hexahydro-pyrrolo[3,4-b]pyrrol-1-yl)-quinazoline], which Ki [1] is on record?
Answer: 90.6 nM

Question: And the Ki [2]?
Answer: 91.4 nM

Question: Fc1cccc(F)c1-c1nc(N2CCNCC2)nc2ccc(Cl)cc12 [Example 131, 4-(2,6-Difluoro-phenyl)-6-chloro-2-piperazin-1-yl-quinazoline] was tested. Which Ki [1] did it give?
Answer: 30 nM

Question: And the Ki [2]?
Answer: 4.8 nM

Question: What does the source list for Clc1ccc2nc(N3CCNCC3)nc(-c3ccccc3)c2c1 [Example 128, 6-Chloro-4-phenyl-2-piperazin-1-yl-quinazoline]?
Answer: Ki [1]: 35.5 nM; Ki [2]: 11.4 nM

Question: For CC[C@H]1CNCCN1c1nc(-c2ccc(F)cc2F)c2ccccc2n1 [Example 165, S-4-(2,4-Difluoro-phenyl)-2-(2-ethyl-piperazin-1-yl)-quinazoline], which Ki [1] is on record?
Answer: 31 nM

Question: What about the Ki [2] of the same compound?
Answer: 14.4 nM

Question: For C[C@@H]1CNCCN1c1nc(-c2c(F)cccc2F)c2ccc(F)cc2n1 [Example 104, R-4-(2,6-Difluoro-phenyl)-7-fluoro-2-(2-methyl-piperazin-1-yl)-quinazoline], which Ki [1] is on record?
Answer: 36.4 nM

Question: What about the Ki [2] of the same compound?
Answer: 27.6 nM

Question: Which results are given for CNC1CCN(c2nc(-c3cccc(F)c3F)c3ccccc3n2)CC1 [Example 158]?
Answer: Ki [1]: 207 nM; Ki [2]: 6030 nM

Question: Which results are given for Fc1ccc2c(-c3cccc(F)c3F)nc(N[C@@H]3CCNC3)nc2c1 [Example 116, R-[4-(2,3-Difluoro-phenyl)-7-fluoro-quinazolin-2-yl]-pyrrolidin-3-yl-amine]?
Answer: Ki [1]: 138 nM; Ki [2]: 963 nM

Question: How did the Ki [1] turn out when C[C@H]1CNCCN1c1nc(-c2cccc(F)c2F)c2ccc(F)cc2n1 [Example 124, S-4-(2,3-Difluoro-phenyl)-7-fluoro-2-(2-methyl-piperazin-1-yl)-quinazoline] was run?
Answer: 21.6 nM

Question: And the Ki [2]?
Answer: 28.1 nM

Question: With Fc1ccc2c(-c3ccccc3C(F)(F)F)nc(N3CCNCC3)nc2c1 [Example 160, 7-Fluoro-2-piperazin-1-yl-4-(2-trifluoromethyl-phenyl)-quinazoline] as the compound, how does the Ki [1] read?
Answer: 60.7 nM

Question: What about the Ki [2] of the same compound?
Answer: 976 nM

Question: Which results are given for Fc1ccc(-c2nc(N3CCNCC3)nc3ccc(F)cc23)c(F)c1 [Example 122, 4-(2,4-Difluoro-phenyl)-6-fluoro-2-piperazin-1-yl-quinazoline]?
Answer: Ki [1]: 12.1 nM; Ki [2]: 15.5 nM

Question: How did the Ki [1] turn out when N[C@H]1CCN(c2nc(-c3c(F)cccc3F)c3ccccc3n2)C1 [Example 96, S-1-[4-(2,6-Difluoro-phenyl)-quinazolin-2-yl]-pyrrolidin-3-ylamine] was run?
Answer: 12.2 nM

Question: What about the Ki [2] of the same compound?
Answer: 70.8 nM

Question: Which results are given for “S-4-(2,4-Difluoro-phenyl)-7-fluoro-2-(2-methyl-piperazin-1-yl)-quinazoline [Example 139]”?
Answer: Ki [1]: 30.7 nM; Ki [2]: 24.9 nM
